Each structure is given as a SMILES string.

For this assay, the species on record is Rattus norvegicus. Description: Inhibition of rat recombinant geranylgeranyltransferase type I expressed in Escherichia coli assessed as residual enzyme activity for geranylgeranylation of K-Ras4B at 50 uM incubated for 30 mins in presence of [3H]GGPP by scintillation counting assay relative to control.

For the compound `Cc1ccc(S(=O)(=O)N2[C@@H](c3ccc(Br)cc3)C(C(=O)O)=CC[C@H]2c2cccc(Br)c2)cc1`, the Activity is 57.9%. Under `CCc1ccc([C@@H]2CC=C(C(=O)O)[C@H](c3ccc(C)cc3)N2S(=O)(=O)c2ccc(C)cc2)cc1` stands 87%; under `CCS[C@@H]1C[C@@H](c2ccccc2F)N(S(=O)(=O)c2ccc(C)cc2)C[C@H]1C(=O)O`, 89.4%. Take `COc1ccc(S[C@@H]2C[C@@H](c3ccc(Cl)cc3)N(S(=O)(=O)c3ccccc3C)C[C@H]2C(=O)O)cc1`: the Activity stood at 85.6%. In the case of `C=CCS[C@@H]1C[C@@H](c2ccc(C)cc2)N(S(=O)(=O)c2ccccc2C)C[C@H]1C(=O)O`, the Activity was 34.5%.

On to `Cc1ccc([C@@H]2CC=C(C(=O)O)[C@H](c3cccc(C)c3)N2S(=O)(=O)c2ccc(Cl)cc2)cc1`, for which the Activity was 89.9%. Under `CCc1ccc([C@@H]2C[C@@H](Sc3ccc(C)cc3)[C@H](C(=O)O)CN2S(=O)(=O)c2ccc(C)cc2)cc1` stands 85%.

With `Cc1ccc([C@@H]2CC=C(C(=O)O)[C@H](c3cccc(Br)c3)N2S(=O)(=O)c2ccc(C)cc2)cc1`, the Activity was found to be 75.6%. As for `CCCCCS[C@@H]1C[C@@H](c2ccc(C)cc2)N(S(C)(=O)=O)C[C@H]1C(=O)O`, the Activity worked out at 107%. As to `CCS[C@@H]1C[C@@H](c2ccc(OC)cc2)N(S(=O)(=O)c2ccc(C)cc2)C[C@H]1C(=O)O`, the Activity was 96.3%. Take `Cc1ccc(S(=O)(=O)N2C[C@@H](C(=O)O)[C@H](SCc3ccccc3)C[C@H]2c2ccc3c(c2)OCO3)cc1`: the Activity came out at 63.1%. As for `CC(=O)C1=CC[C@@H](c2ccc(C)cc2)N(S(=O)(=O)c2ccccc2C)C1`, the Activity was determined as 85.3%.

In the case of `COC(=O)c1ccccc1S(=O)(=O)N1[C@@H](c2ccc(Br)cc2)C(C(=O)O)=CC[C@H]1c1ccc(C)cc1`, the Activity came to 77.4%. On to `COc1ccc([C@@H]2CC=C(C(=O)O)[C@H](c3ccc(F)cc3)N2S(=O)(=O)c2ccc(C)cc2)cc1OC`, for which the Activity came out at 69.8%. In the case of `C=CCS[C@@H]1C[C@@H](c2ccc(C)cc2)N(S(=O)(=O)c2ccccc2)C[C@H]1C(=O)O` it was 50.7%; in that of `Cc1ccc([C@@H]2C[C@@H](SC3CCCC3)[C@H](C(=O)O)CN2S(=O)(=O)c2ccccc2)cc1`, 100%; in that of `Cc1ccc([C@@H]2C[C@@H](SCc3ccc(C(C)(C)C)cc3)[C@H](C(=O)O)CN2S(=O)(=O)c2ccc(C)cc2)cc1`, 69.6%. As for `Cc1ccc([C@@H]2C[C@@H](SCCC(C)C)[C@H](C(=O)O)CN2S(=O)(=O)c2ccccc2C)cc1`, the Activity amounted to 75.2%. For the compound `Cc1ccc([C@@H]2CC=C(C(=O)O)[C@H](c3cccc(F)c3)N2S(=O)(=O)c2ccccc2C)cc1`, the Activity stood at 63.4%.

For the compound `Cc1ccc([C@@H]2CC=C(C(=O)O)[C@H](c3cccc(Br)c3)N2S(=O)(=O)c2ccccc2C)cc1`, the Activity amounted to 50%.

On to `CCCS[C@@H]1C[C@@H](c2ccc(OC)cc2)N(S(=O)(=O)c2ccc(C)cc2)C[C@H]1C(=O)O`, for which the Activity came out at 88.9%.

Take `Cc1ccc([C@@H]2C[C@@H](SC3CCCC3)[C@H](C(=O)O)CN2S(=O)(=O)c2ccc(C)cc2)cc1`: the Activity is 87.8%. On to `CCc1ccc([C@@H]2C[C@@H](SC3CCCC3)[C@H](C(=O)O)CN2S(=O)(=O)c2ccc(C)cc2)cc1`, for which the Activity came to 87%. `Cc1ccc([C@H]2C(C(=O)O)=CC[C@@H](c3ccc(Cl)cc3)N2S(=O)(=O)c2ccc(Cl)cc2)cc1`: the Activity was found to be 53.9%. In the case of `Cc1ccc(S(=O)(=O)N2C[C@@H](C(=O)O)[C@H](SCC(C)C)C[C@H]2c2cccc(Cl)c2)cc1`, the Activity came out at 79.7%. Turning to `Cc1ccc([C@H]2C(C(=O)O)=CC[C@@H](c3ccc(C)cc3)N2S(C)(=O)=O)cc1`, the Activity came out at 78%. Under `Cc1cccc([C@H]2C(C(=O)O)=CC[C@@H](c3ccc(Cl)cc3)N2S(=O)(=O)c2ccc(Cl)cc2)c1` stands 89.5%. Regarding `CCc1ccc([C@@H]2C[C@@H](Sc3ccccc3)[C@H](C(=O)O)CN2S(=O)(=O)c2ccc(C)cc2)cc1`, the Activity came to 45.7%.

In the case of `COc1ccc([C@@H]2CC=C(C(=O)O)[C@H](c3ccc(Br)cc3)N2S(=O)(=O)c2ccccc2C)cc1`, the Activity stood at 63.7%. `Cc1ccc(S(=O)(=O)N2[C@@H](c3cccc(F)c3)C(C(=O)O)=CC[C@H]2c2ccc(Cl)cc2)cc1`: the Activity was found to be 76.2%. For `C=CCS[C@@H]1C[C@@H](c2cccc(OC)c2)N(S(=O)(=O)c2ccc(C)cc2)C[C@H]1C(=O)O`, the Activity was found to be 75.1%. Under `Cc1ccc([C@@H]2CC=C(C(=O)O)[C@H](c3cccc(F)c3)N2S(=O)(=O)c2ccccc2)cc1` stands 64.9%; under `C=CCS[C@@H]1C[C@@H](c2ccc(C)cc2)N(S(C)(=O)=O)C[C@H]1C(=O)O`, 91.4%. Turning to `CCCCCCS[C@@H]1C[C@@H](c2ccc(C)cc2)N(S(C)(=O)=O)C[C@H]1C(=O)O`, the Activity worked out at 83.1%. In the case of `Cc1ccc(S(=O)(=O)N2[C@@H](c3cccc(Br)c3)C(C(=O)O)=CC[C@H]2c2ccccc2F)cc1`, the Activity was 71.2%.

`CCCCCCS[C@@H]1C[C@@H](c2ccc3c(c2)OCO3)N(S(=O)(=O)c2ccc(C)cc2)C[C@H]1C(=O)O`: the Activity was found to be 62.7%. `Cc1ccc([C@H]2C(C(=O)O)=CC[C@@H](c3ccccc3)N2S(=O)(=O)c2ccc(C)cc2)cc1`: the Activity worked out at 87.5%.

Consider `COc1ccc([C@@H]2C[C@@H](SCCC(C)C)[C@H](C(=O)O)CN2S(=O)(=O)c2ccc(C)cc2)cc1OC`, for which the Activity was 91.1%.

For the compound `C=CCS[C@@H]1C[C@@H](c2ccc(OC)c(OC)c2)N(S(=O)(=O)c2ccc(C)cc2)C[C@H]1C(=O)O`, the Activity came to 109%. Under `Cc1ccc(S(=O)(=O)N2[C@@H](c3cccc(F)c3)C(C(=O)O)=CC[C@H]2c2ccc(C(C)C)cc2)cc1` stands 72.8%. With `Cc1ccc([C@H]2C(C(=O)O)=CC[C@@H](c3ccc(Cl)cc3)N2S(=O)(=O)c2ccccc2C)cc1`, the Activity is 61.6%. In the case of `CCCCCS[C@@H]1C[C@@H](c2ccc(OC)cc2)N(S(=O)(=O)c2ccc(Cl)cc2)C[C@H]1C(=O)O` it was 70.9%. In the case of `Cc1ccc(S(=O)(=O)N2C[C@@H](C(=O)O)[C@H](SCc3ccc(C(C)(C)C)cc3)C[C@H]2c2ccc3c(c2)OCO3)cc1` it was 59.3%; in that of `CS(=O)(=O)N1[C@@H](c2cccc(Cl)c2)C(C(=O)O)=CC[C@H]1c1ccc(Cl)cc1`, 60.3%; in that of `COc1ccc(S[C@@H]2C[C@@H](c3ccc(C)cc3)N(S(=O)(=O)c3ccccc3)C[C@H]2C(=O)O)cc1`, 100%.

With `CC(=O)C1=CC[C@@H](c2ccc(Cl)cc2)N(S(=O)(=O)c2ccc(C)cc2)C1`, the Activity is 80.8%. With `COc1ccc([C@@H]2CC=C(C(=O)O)[C@H](c3ccc(C)cc3)N2S(=O)(=O)c2ccccc2C)cc1`, the Activity was 86%.

`CCc1ccc([C@@H]2CC=C(C(=O)O)[C@H](c3ccc(Cl)cc3)N2S(=O)(=O)c2ccc(C)cc2)cc1`: the Activity turned out to be 89.8%.

Turning to `COC(=O)c1ccccc1S(=O)(=O)N1[C@@H](c2cccc(C)c2)C(C(=O)O)=CC[C@H]1c1ccc(C)cc1`, the Activity stood at 54.2%. As to `COc1ccc([C@@H]2CC=C(C(=O)O)[C@H](c3ccc(F)cc3)N2S(=O)(=O)c2ccccc2)cc1`, the Activity stood at 67.7%.

On to `CCCCCS[C@@H]1C[C@@H](c2ccc(OC)cc2)N(S(=O)(=O)c2ccccc2C)C[C@H]1C(=O)O`, for which the Activity was 67.1%. Turning to `COc1ccc(S[C@@H]2C[C@@H](c3ccc(C)cc3)N(S(=O)(=O)c3ccc(Cl)cc3)C[C@H]2C(=O)O)cc1`, the Activity was determined as 82.7%. In the case of `CC(=O)C1=CC[C@@H](c2ccc(C)cc2)N(S(=O)(=O)c2ccccc2)C1` it was 99%; in that of `CCS[C@@H]1C[C@@H](c2ccc(C)cc2)N(S(=O)(=O)c2ccccc2C)C[C@H]1C(=O)O`, 83.6%; in that of `CCc1ccc([C@@H]2C=CCCN2S(=O)(=O)c2ccc(C)cc2)cc1`, 99.5%. On to `COc1cccc([C@@H]2CC=C(C(C)=O)CN2S(=O)(=O)c2ccc(C)cc2)c1`, for which the Activity stood at 85%.

Turning to `CC(=O)C1=CC[C@@H](c2cccc3ccccc23)N(S(=O)(=O)c2ccc(C)cc2)C1`, the Activity turned out to be 95.6%. For `Cc1ccc(S(=O)(=O)N2[C@@H](c3cccc(Cl)c3)C(C(=O)O)=CC[C@H]2c2cccc(F)c2)cc1`, the Activity amounted to 62.3%.

For the compound `Cc1ccc(S(=O)(=O)N2[C@@H](c3cccc(Br)c3)C(C(=O)O)=CC[C@H]2c2cccc(F)c2)cc1`, the Activity was 67.1%. For `CCOc1ccc([C@@H]2C[C@@H](Sc3ccc(OC)cc3)[C@H](C(=O)O)CN2S(=O)(=O)c2ccc(C)cc2)cc1`, the Activity is 79.1%. In the case of `Cc1ccccc1S(=O)(=O)N1C[C@@H](C(=O)O)[C@H](SC2CCCC2)C[C@H]1c1ccc(Cl)cc1` it was 92.1%; in that of `CCCCCS[C@@H]1C[C@@H](c2ccc(Cl)cc2)N(S(=O)(=O)c2ccc(C)cc2)C[C@H]1C(=O)O`, 59.8%. For `Cc1ccc([C@@H]2C[C@@H](SCc3ccc(Cl)cc3)[C@H](C(=O)O)CN2S(C)(=O)=O)cc1`, the Activity turned out to be 51.1%. In the case of `Cc1ccc([C@@H]2CC=C(C(=O)O)[C@H](c3cccc(Br)c3)N2S(C)(=O)=O)cc1`, the Activity was 66.6%.

In the case of `COc1ccc(S[C@@H]2C[C@@H](c3cccc(OC)c3)N(S(=O)(=O)c3ccc(C)cc3)C[C@H]2C(=O)O)cc1`, the Activity is 101%. On to `CCCCCS[C@@H]1C[C@@H](c2ccc(C)cc2)N(S(=O)(=O)c2ccc(Cl)cc2)C[C@H]1C(=O)O`, for which the Activity came out at 75.8%. As for `CCOc1ccc([C@@H]2CC=C(C(=O)O)[C@H](c3ccc(C(C)(C)C)cc3)N2S(=O)(=O)c2ccc(C)cc2)cc1`, the Activity came to 58.7%. Under `Cc1ccc(S(=O)(=O)N2[C@@H](c3cccc(F)c3)C(C(=O)O)=CC[C@H]2c2cccc(Cl)c2)cc1` stands 52.8%; under `Cc1ccc(S(=O)(=O)N2[C@@H](c3ccc(F)cc3)C(C(=O)O)=CC[C@H]2c2ccccc2)cc1`, 68.1%; under `COc1ccc([C@@H]2CC=C(C(=O)O)[C@H](c3cccc(Br)c3)N2S(=O)(=O)c2ccc(C)cc2)cc1`, 84.5%. `Cc1ccc(S(=O)(=O)N2C[C@@H](C(=O)O)[C@H](Sc3ccccc3)C[C@H]2c2ccccc2)cc1`: the Activity was found to be 49.3%.
